Results as given in US4874862A, “Process for preparing guanine derivatives” (Warner-Lambert Company, priority 1987, dated 1989).

Tested on: T-cells
Experiment: standard test of selective cytotoxicity for T-cells in the presence of 2'-deoxyguanosine
Type: cell-based
Conditions: in the presence of 10 uM of 2'-deoxyguanosine
Protocol: PNP-4 activity was measured radiochemically by measuring the formation of [^14 -C]-hypoxanthine from [^14 -C]-inosine [Biomedicine, 33, 39 (1980)] using human erythrocyte as the enzyme source. The same compounds also were found by a standard test (Science, 214, 1137, (1981)] to be selectively cytotoxic for T-cells in the presence of 2'-deoxyguanosine at a similar concentration range. For example, 8-amino-9-[(4-methylphenyl)methyl]guanine is selectively cytotoxic to T-cells at a concentration of about 3.1 uM in the presence of 10 uM of 2'-deoxyguanosine. Similarly, 8-amino-9-[(4-methoxyphenyl)methyl]guanine is selectively cytotoxic to T-cells at a concentration of about 1.1 uM in the presence of 10 uM of 2'-deoxyguanosine. On the other hand, these compounds were nontoxic to B-cells in the presence or absence of the same amount of 2'-deoxyguanosine. Since T-cells play a central role in immune response, use of the compounds of the invention is contemplated for the immunoregulation of rejection in transplantation and autoimmune disease such as rheumatoid arthritis, systemic lupus erythematosus, inflammatory bowel disease, cancer, juvenile diabetes, myasthenia gravis, multiple sclerosis, and viral diseases. […]

SMILES | concentration at which selectively cytotoxic to T-cells
Cc1ccc(Cn2c(N)nc3c(=O)[nH]c(N)nc32)cc1 [8-amino-9-[(4-methylphenyl)methyl]guanine] | about 3.1 uM
COc1ccc(Cn2c(N)nc3c(=O)[nH]c(N)nc32)cc1 [8-amino-9-[(4-methoxyphenyl)methyl]guanine] | about 1.1 uM
